Source: patent US11497729B2, “Methods and materials for treating cancer” (Mayo Foundation for Medical Education and Research, priority 2016, dated 2022)
Entries after “also recorded” stand apart in the source; their conditions may differ.

Assays:
HER4 = test: Western blot of ZR-75-1 cell lysates, HER4; format: cell-based; conditions: ZR-75-1 cells, 10 μM P005091 for 12 hours; FIG. 5
Procedure: (§1) Breast cancer cells ZR-75-1 were treated with either 1% DMSO or 10 μM P005091 for 12 hours. Cell lysates were subjected to western blot with indicated antibodies (FIG. 5).

HER1 (EGFR) = test: Western blot of ZR-75-1 cell lysates, HER1; format: cell-based; conditions: ZR-75-1 cells, 10 μM P005091 for 12 hours; FIG. 5
Procedure: as §1

HER2 = test: Western blot of ZR-75-1 cell lysates, HER2; format: cell-based; conditions: ZR-75-1 cells, 10 μM P005091 for 12 hours; FIG. 5
Procedure: as §1

[1] = system: HER2+ breast cancer cells; test: Cell survival by MTS assay, Herceptin with or without P005091; format: cell-based; conditions: FIG. 4A
Procedure: (§2) P005091 increased the efficacy of the HER2 inhibitor, trastuzumab, in HER2^+ breast cancer cells, xenografts, and PDX models. HER2^+ breast cancer cells were treated with indicated concentrations of Herceptin with or without 10 μM P005091 for 72 hours. Cell survival was determined by MTS assays. Data was shown as mean values for three independent experiments, and error bars represent standard error of the mean (SEM) (n=3) (FIG. 4A). Tumor xenografts were initiated by subcutaneous inoculation of Bt474 parental and Bt474 Herceptin resistance cells in the lower back of SCID mice. Herceptin (15 mg/kg) and P005091 (10 mg/kg) were administered intraperitoneally once a week for the entire duration of the study. […] A HER2^+ patient derived xenograft model was tested by inoculation of tissues in the lower back of SCID mice (FIG. 4C). Drug treatment was same as described above. Data represent the mean±SD of 6 mice in each group.

[2] = system: HER2+ patient derived xenograft; test: HER2+ patient derived xenograft model in SCID mice; format: in vivo; conditions: Herceptin 15 mg/kg and P005091 10 mg/kg intraperitoneally once a week, FIG. 4C
Procedure: as §2

HER3 = test: Western blot of ZR-75-1 cell lysates, HER3; format: cell-based; conditions: ZR-75-1 cells, 10 μM P005091 for 12 hours; FIG. 5
Procedure: as §1

SMILES: CC(=O)c1cc([N+](=O)[O-])c(Sc2cccc(Cl)c2Cl)s1 [P005091, 1-[5-(2,3-dichlorophenyl)sulfanyl-4-nitrothiophen-2-yl]ethanone]
- HER4 protein level by Western blot (HER4): down regulated
- HER1 (EGFR) protein level by Western blot (HER1 (EGFR)): down regulated
- HER2 protein level by Western blot (HER2): down regulated
- sensitization effect in HER2 resistant breast cancer cell lines ([1]; HER2 resistant breast cancer cell lines): sensitization effect occurred
- sensitization of HER2+ breast cancer cells to trastuzumab treatment (cell survival) ([1]; four different HER2+ breast cancer cells, 10 μM P005091 with Herceptin for 72 hours): sensitizes; also recorded: dramatically sensitized
- sensitivity of PDX model to treatment [2]: dramatically sensitized
- HER3 protein level by Western blot (HER3): down regulated
